Assay results from patent publication US20240316223A1, “Oxidative Cyclization Reagents for Chemoselective Tryptophan Bioconjugation” (The Regents of the University of California, priority 2021, published 2024).
Peptide text beside a SMILES is read from it. * marks the point of attachment. Cbz = O=C(OCc1ccccc1)*

Key:
HEK 293T cell lysates = assay: Activity-based protein profiling (ABPP) of hyperreactive tryptophan sites; assay type: biochemical, human; conditions: identified in more than two replicates
Text: We next moved on to apply Trp-CLiC at the whole proteome level, specifically to identify new functional tryptophan sites in cells using activity-based protein profiling (ABPP).
From the ABPP studies with the Trp-CLiC method, 190 unique hyperreactive tryptophan sites from 151 probe-modified proteins were identified in more than two replicates. These Ox-W18-labeled tryptophan sites were found in many classes of proteins, including enzymes, chaperones, and nucleoproteins, as well as many structural proteins. Meanwhile, we noticed that many targets are classified as non-druggable and highly enriched in diverse phase-separated compartments, such as the nucleolus, nuclear body, paraspeckle and stress granule. […] For example, the hyperreactive W196 site identified on GAPDH, W346 site found on TBA1B, and W324 and W148 on LDHA enzyme are the most surface-exposed tryptophan residues in these proteins, whereas other tryptophan residues were not probed. […] GAPDH and TBA1B were chosen as representative examples to showcase the Trp-CLiC method for ABPP. […] We then sought to further investigate the character of probed solvent-accessible tryptophan sites by performing motif analysis. […] Lysine is hydrophilic and has the capacity to form cation-π interactions with the indole tryptophan ring, providing a potential pathway for stabilizing hydrophobic tryptophan residues being surface-exposed (38, 39). […]

lysozyme = lysozyme (Gallus gallus, UniProt P00698); assay: Lysozyme labelling with Ox-W18 (A260/A280 ratio, LC-MS/MS); conditions: native folded conditions
Text: Based on spectroscopic analyses, we used the ratio of absorption signatures at 260 and 280 nm (A260/A280 ratio) to track tryptophan bioconjugation on lysozyme.
We next evaluated how many and which tryptophan residues on lysozyme are prioritized for redox-based Trp-CLiC labeling under native folded conditions. […] We then moved on to identify which tryptophan sites are targeted and tested the hypothesis that the propensity of oxidative tryptophan modification reactivity might correlate with solvent accessibility. To this end, we used the Discovery Studio platform to calculate the relative solvent accessibility of the six tryptophan residues on lysozyme.
Proteins were dissolved in Tris (50 mM, pH 8.0) buffer. Ox-W18 (100 mM stock in DMF) was added to 30 μL protein solution (50 μM) and the final concentration was 300 μM. The reactions were performed for 10 min at room temperature and then quenched by addition of excess Ac-Met-OMe solution. For protein labelling under denaturing condition, the protein solution was treated with 0.5% SDS and then boiled for 5 min at 95° C. before Ox-W18 addition. For competition assay, free Ac-Trp-OMe (2 mM) was added beforehand. […]
(§1) Trypsin digested peptides were analyzed on a Thermo Scientific Q Exactive™ Plus Hybrid Quadrupole-Orbitrap™ Mass Spectrometer coupled with an Aligent 1260 Infinite LC system. […]

GAPDH and TBA1B = GAPDH and TBA1B labeling by Western Blot; assay type: biochemical
Text: From the ABPP studies with the Trp-CLiC method, 190 unique hyperreactive tryptophan sites from 151 probe-modified proteins were identified in more than two replicates. These Ox-W18-labeled tryptophan sites were found in many classes of proteins, including enzymes, chaperones, and nucleoproteins, as well as many structural proteins. Meanwhile, we noticed that many targets are classified as non-druggable and highly enriched in diverse phase-separated compartments, such as the nucleolus, nuclear body, paraspeckle and stress granule. […] For example, the hyperreactive W196 site identified on GAPDH, W346 site found on TBA1B, and W324 and W148 on LDHA enzyme are the most surface-exposed tryptophan residues in these proteins, whereas other tryptophan residues were not probed. […] GAPDH and TBA1B were chosen as representative examples to showcase the Trp-CLiC method for ABPP. […] We then sought to further investigate the character of probed solvent-accessible tryptophan sites by performing motif analysis. […] Lysine is hydrophilic and has the capacity to form cation-π interactions with the indole tryptophan ring, providing a potential pathway for stabilizing hydrophobic tryptophan residues being surface-exposed (38, 39).

IL8 = biological target: T1, IL8 (Homo sapiens, UniProt P10145); assay: Protein labelling with N-sulfonyl oxaziridine: IL8 (LC-MS/MS); conditions: native vs denaturant-treated IL8
T1 sequence (P10145 21-99): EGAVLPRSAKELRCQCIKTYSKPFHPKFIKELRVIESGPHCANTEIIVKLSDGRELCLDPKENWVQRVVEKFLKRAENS
Procedure: We then went on to label the model protein IL8, which has one partially buried tryptophan site.
Proteins were dissolved in Tris (50 mM, pH 8.0) buffer. Ox-W18 (100 mM stock in DMF) was added to 30 μL protein solution (50 μM) and the final concentration was 300 μM. The reactions were performed for 10 min at room temperature and then quenched by addition of excess Ac-Met-OMe solution. For protein labelling under denaturing condition, the protein solution was treated with 0.5% SDS and then boiled for 5 min at 95° C. before Ox-W18 addition. For competition assay, free Ac-Trp-OMe (2 mM) was added beforehand. […] After tryptophan labelling with Ox-W18, the proteins were desalted with Zeba™ Spin Desalting Columns (7K MWCO, 0.5 mL) before subsequent Q-TOF analysis and UV-Vis analysis or further click reaction. In-gel fluorescence imaging was also applied to test the tryptophan labelling efficiency. For the copper-mediated alkyne-azide cyclization reaction of fluorescence dye, 100 μM CuSO4, 100 μM TBTA, 100 μM azide-dye and 2 mM sodium ascorbate was added to Ox-W18-labeled proteins. […]
as §1
For protein ID and modification identification, all MS/MS raw files were analyzed using pFind platform. […]

GLP-1 = GLP-1 (Homo sapiens, UniProt P01275); assay: Oxaziridine screening on peptides: GLP-1 (Q-TOF); assay type: biochemical; conditions: GLP-1 (50 μM), oxaziridine (300 μM)
Procedure: Peptides were dissolved in 5% DMSO solution. […] The labeled peptides were subjected to Q-TOF analysis with a Proswift RP-4H (monolithic phenyl, 1.0 mm×50 mm, Dionex) column. The Solvent A was MilliQ water with 0.1% (v/v) formic acid, while the Solvent B was ACN with 0.1% (v/v) formic acid. The LC system was set at the 0.30 mL/min with a gradient of 5-100% solvent B in solvent A over 8 min. MassHunter Quantitative Analysis Version software was used for ion chromatogram extraction and Maximum Entropy deconvolution.

HeLa cells = assay: Unfolding stress detection in living cells (desthiobiotin oxaziridine labeling, Western blot against biotin); assay type: cell-based; conditions: HeLa cells treated 8 hours, lysate labeled with desthiobiotin oxaziridine (250 μM)
Text: In another application, we used Trp-CLiC as a general method to probe stress-induced protein unfolding. Indeed, under various environmental stresses, folded proteins will expose more hydrophobic residues as they unfold, and accumulation and aggregation of unfolded proteins is regarded as a signal of loss of proteostasis (34-37). Owing to its sterically demanding and hydrophobic properties, tryptophan residues are more likely to be buried in protein cores. We reasoned that this oxidative cyclization method could enable monitoring of increases in solvent accessibility of buried tryptophan residues during stress-induced protein unfolding. To test this hypothesis, we labeled lysozyme as a model protein in the presence of varying concentrations of guanidinium chloride (GdmCl) as a denaturant. […] We then used Trp-CLiC to monitor stress-induced protein unfolding in whole cell proteomes. HeLa cells were treated with the proteasome inhibitor MG-132, the ER stress inducer Tunicamycin to trigger unfolded protein stress responses, or vehicle control, then lysed and labeled with N-sulfonyl oxaziridine linked to desthiobiotin.
HeLa cells were treated with MG-132 (5 μg/ml) or Tunicamycin (5 μM) for 8 hours. Then cells were harvested and lysed in PBS buffer (1% Triton, with protease inhibitors). […] The labeling results were detected by Western blot analysis against biotin.

[1] = Kinetics of the Trp-CLiC reaction (absorbance at 280 nm, UV-Vis); conditions: PBS buffer, 25° C.
Procedure: For kinetics study of the Trp-CLiC reaction, the absorbance at 280 nm was time-dependently monitored by UV-Vis upon adding Ox-W18 (50 μM) into different concentrations of Ac-Trp-OMe (500 μM, 550 μM and 600 μM) in PBS buffer at 25° C. Then the second-order reaction rate constant could be obtained.

[2] = Selectivity and reactivity of Ac-Trp-OMe with N-sulfonyl oxaziridines (LC-MS); conditions: for selectivity for the indole cycloadduct product: library screen with Ac-Trp-OMe
Procedure: Initial reactivity studies with the N-sulfonyl oxaziridine Ox-W1 and N-acetyl-L-tryptophan methyl ester (Ac-Trp-OMe) were then performed in PBS/organic solvent mixture for 10 min at room temperature and subjected to liquid chromatography-mass spectrometry (LC-MS) analysis. Tryptophan reacted with a ˜50% conversion. Two major products were observed: the desired indole cycloadduct and hydroxyl tryptophan. The cycloadduct was generated with 28% yield, consistent with simple indoles that can react with such oxaziridines in organic solution (28). […] We then synthesized and screened a library of 20 different oxaziridines for Trp-CLiC chemistry; Ox-W10, Ox-W17, and Ox-W19 emerged as the top lead candidates with improved ˜90% selectivity and high reactivity for the indole cycloadduct product, with a measured reaction rate of 24.9±1.3M^−1 s^−1 that is on par with click chemistry reactions (29-31).
A stock solution of Ac-Trp-OMe (100 mM) in MeOH was mixed with oxaziridine (100 mM) in MeOH (v/v ratio=1:1.2), followed by the immediate addition of PBS (1 volume equiv. to make 1:1 PBS/MeOH). For some oxaziridines with low solubility, the reaction was performed in PBS/MeOH/MeCN (1:1:1) co-solvent. […] It is important the initial stock solutions of Ac-Trp-OMe and oxaziridine are fully homogeneous prior to mixing.
For LC-MS analysis, solvent A was water and solvent B was methanol. The linear gradient was 40-100% B in 6.5 min and 100% B for 1.5 min.

[3] = Reaction of oxaziridine with methionine
[4] = Ac-Trp-OMe, PBS/organic solvent mixture, 10 min, room temperature

Chain of GLP-1 (P01275 92-128 limits assumed): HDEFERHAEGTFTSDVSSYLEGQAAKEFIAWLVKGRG
Chain of lysozyme (P00698 19-147): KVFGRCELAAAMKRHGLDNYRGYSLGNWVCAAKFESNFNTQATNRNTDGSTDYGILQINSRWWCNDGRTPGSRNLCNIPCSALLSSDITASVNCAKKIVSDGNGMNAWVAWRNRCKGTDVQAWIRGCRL

C#CCN(C)S(=O)(=O)N1OC1c1ccccc1[N+](=O)[O-] (stereo not drawn) [Ox-W18]
probe-modified proteins identified (HEK 293T cell lysates): 151 | unique hyperreactive tryptophan sites identified (HEK 293T cell lysates): 190 | A260/A280 ratio (lysozyme): 0.80 | GAPDH and TBA1B labeling with increased probe addition (GAPDH and TBA1B): more GAPDH and TBA1B labeling | modification of the partially buried tryptophan site (IL8): modified only after treatment with a denaturant | conversion (GLP-1): quantitative | cycloadduct yield (GLP-1): 74%

CC(C)C[C@@H](C=O)NC(=O)[C@H](CC(C)C)NC(=O)[C@H](CC(C)C)NC(=O)OCc1ccccc1 [MG-132] (Cbz-Leu-Leu-Leu-aldehyde)
desthiobiotin staining signal vs vehicle control (HeLa cells): more desthiobiotin staining signal

COc1ccc(S(=O)(=O)N2OC2c2ccc([N+](=O)[O-])cc2[N+](=O)[O-])cc1 (stereo not drawn) [Ox-W10]
measured reaction rate (second-order rate constant) [1]: 24.9 ± 1.3 M⁻¹ s⁻¹ | selectivity for the indole cycloadduct product [2]: ~90%

C#Cc1ccc(S(=O)(=O)N2OC2c2ccccc2[N+](=O)[O-])cc1 (stereo not drawn) [Ox-W17]
measured reaction rate (second-order rate constant) [1]: 24.9 ± 1.3 M⁻¹ s⁻¹ | selectivity for the indole cycloadduct product [2]: ~90%

CS(=O)(=O)N1OC1c1ccccc1 (stereo not drawn) [Ox-W1]
Tryptophan conversion [2, 4]: ~50% | indole cycloadduct yield [2, 4]: 28% | product of reaction with methionine [3]: traceless methionine sulfoxide adduct

Tunicamycin
desthiobiotin staining signal vs vehicle control (HeLa cells): more desthiobiotin staining signal

C#CCN(C)S(=O)(=O)N1OC1c1ccc([N+](=O)[O-])cc1[N+](=O)[O-] (stereo not drawn) [Ox-W19]
measured reaction rate (second-order rate constant) [1]: 24.9 ± 1.3 M⁻¹ s⁻¹ | selectivity for the indole cycloadduct product [2]: ~90%
